Entries after “also recorded” stand apart in the source; their conditions may differ.
Tested on: isolated rabbit hearts
Experiment: Hemodynamic responses (heart rate, coronary flow, LVDP, AV conduction) in isolated perfused rabbit hearts, Example 1
Parameters: species or system rabbit (New Zealand white)
Details: for Hemodynamics, treatment alone: SPT or DPCPX alone
Description: These solutions were then diluted in Krebs buffer to the final concentration just before the experiments started. New Zealand white rabbits of either sex, between 1.4-2.4 kg, were anesthetized with intravenous sodium pentobarbital (30 mg/kg). The neck was opened and a tracheotomy was performed. The rabbits were ventilated with 100% oxygen via a positive pressure respirator (MD industries, Mobile, Ala.). Ventilation rate was 30-35 breaths per minute, and tidal volume was approximately 15 ml. A left thoracotomy was performed in the fourth intercostal space and pericardium was opened to expose the heart. A 2-0 silk suture with an RB taper needle was passed around a branch of the left coronary artery, and the end of the silk were threaded through a small vinyl tube to form a snare. The heads were quickly excised and mounted on a Langendorff apparatus and perfused at constant pressure with Krebs buffer containing (in mM) 118.5 NaCl, 4.7 KCl, 1.2 MgSO4, 1.2 K2 PO4, 24.3 NaHCO3, 2.5 CaCl2 and 10 glucose. […] The temperature of the perfusate was maintained at 37° C. The perfusion pressure was kept at 75 mm Hg. Pacing electrodes were placed on the right atrium and all hearts were paced at 200 beats/minute with pulses of 5 volts and 4 msec duration to keep the heart rate constant. A fluid-filled latex balloon connected to a transducer via PE240 tubing was inserted into the left ventricle. Balloon volume was adjusted to set the left ventricular diastolic pressure at 10 mm Hg at the beginning of the experiment. Total coronary artery flow was measured by timed collection of buffer from the chamber into a graduated cylinder. Regional ischemia was effected by pulling the snare tight and clamping the tube with a hemostat. Global ischemia was performed by clamping the inflow tubing of the Langendorff apparatus. Reperfusion was achieved by releasing the restriction. All hearts were allowed to equilibrate for 20 minutes before the experiments were started. Heart rate (HR), coronary flow (CF) and left ventricular developed pressure (LVDP) were recorded at the point just before and at the end of each treatment with the pacing momentarily turned off. The animals were divided into 10 groups. The hearts in all groups were subjected to 30 minutes of coronary branch occlusion followed by 120 minutes of reperfusion. Control group (CON, n=10) only experienced the above-mentioned 30 minutes of regional ischemia while the preconditioned group (PC, n=12) received an additional 5 minutes of global ischemia plus 10 minutes of reperfusion prior to the 30 minute occlusion. In the adenosine group (ADO, n=6) and the APNEA group (APNEA, n=5), the hearts were exposed to 10 uM adenosine and 50 nM APNEA respectively, for 5 minutes as a substitute for ischemic preconditioning. The drug was allowed to washout for 10 minutes before the 30 minute ischemia was started. In groups receiving SPT, the blocker was included in the perfusate for 15 minutes at 100 uM starting 5 minutes before the exposure of ADO (ADO-SPT group, n=6) or APNEA (APNEA-SPT group, n=5) or 5 minutes before and after 5 minutes of preconditioning ischemia (PC-SPT group, n=5). […] All results are expressed as group mean±SEM. The differences among groups was determined by a one-way analysis of variance with a Newman-Keuls post hoc test. A value of p<0.05 was considered to be significant. In order to ensure that the adenosinergic agents were active at the concentrations employed, hemodynamic responses were measured in a separate group of animals who experienced similar surgery described above except the coronary snare was not installed and therefore the second group of animals were not exposed to ischemia. The hearts were quickly excised and mounted on the Langendorff apparatus and perfused with Krebs buffer. The depressant effect of adenosine on atrioventricular (AV) conduction time was measured at a constant rate of atrial pacing, as an index of A 1-mediated activity. […]

Nc1ncnc2c1ncn2[C@@H]1O[C@H](CO)[C@@H](O)[C@H]1O [ADO, Adenosine]
HR and CF effects of ADO after washout (10 minutes of washout): completely disappeared | Coronary flow (CF) after infusion (ADO 10 uM, 5 minutes, increased from 7.6±0.6 ml/g/min): 10.3 ± 0.8 mL/g/min | Heart rate (HR) after infusion (ADO 10 uM, 5 minutes, significantly decreased from 176±8 beats/min): 149±6 beats/minutes

Nc1ccc(CCNc2ncnc3c2ncn3[C@@H]2O[C@H](CO)[C@@H](O)[C@H]2O)cc1 [APNEA, N^6-(2-(4-aminophenyl)ethyl) adenosine]
Alteration of HR, CF or LVDP (APNEA 50 nM): did not significantly alter HR, CF or LVDP | Activation of A1 or A2 adenosine receptors (APNEA 50 nM, inferred from hemodynamics): neither the A1 nor A2 adenosine receptors are activated

CCCn1c(=O)c2[nH]c(C3CCCC3)nc2n(CCC)c1=O [DPCPX, 8-cyclopentyl-1,3-dipropylxanthine]
Blockade of adenosine's effect on heart rate (DPCPX 200 nM vs ADO): eliminated the decrease in HR; also recorded: entirely blocked; also recorded: completely blocked | Effect on increase in CF from ADO infusion (DPCPX 200 nM vs ADO): did not affect the increase in CF | Hemodynamics, treatment alone: only slightly affected

Cn1c(=O)c2[nH]c(-c3ccc(S(=O)(=O)O)cc3)nc2n(C)c1=O [SPT, 8-(p-Sulfophenyl)-theophylline]
Blockade of CF increase from ADO infusion (SPT 100 uM vs ADO): abolished | Blockade of HR decrease from ADO infusion (SPT 100 uM vs ADO): abolished | Hemodynamics, treatment alone: only slightly affected

Source: patent publication US5573772A, “Methods for protecting tissues and organs from ischemic damage” (priority 1994, dated 1996)
